Assays:
human V1a receptor = molecular target: T1, human V1a receptor (Homo sapiens, UniProt P37288); experiment: Cellular in vitro assay for determining vasopressin receptor activity, V1a receptor cell line (CHO, aequorin luminescence); format: cell-based; settings: for IC50: CHO cell line transfected with human V1a receptor, [Arg]-vasopressin at EC50 concentration, read-out: IC50 hV1a; for ratio IC50 hV2/hV1a: selectivity ratio IC50 hV2 / IC50 hV1a
T1 construct: expressed in transfected cells; host or cells: CHO K1 (ATCC), also stably transfected with a modified aequorin
Procedure, shortened: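 IC50 from inhibition of [Arg]-vasopressin (EC50 concentration)-evoked aequorin luminescence in CHO K1 cells, with 10-min compound pretreatment.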

human V2 receptor = molecular target: T2, human V2 receptor (Homo sapiens, UniProt P30518); experiment: Cellular in vitro assay for determining vasopressin receptor activity, V2 receptor cell line (CHO, CRE-luciferase); format: cell-based; settings: CHO cell line transfected with human V2 receptor; [Arg8]-vasopressin at EC50 concentration; read-out: IC50 hV2
T2 construct: expressed in transfected cells; host or cells: CHO K1 (ATCC) expressing firefly luciferase under a CRE-responsive promoter
T2 sequence (P30518 whole entry): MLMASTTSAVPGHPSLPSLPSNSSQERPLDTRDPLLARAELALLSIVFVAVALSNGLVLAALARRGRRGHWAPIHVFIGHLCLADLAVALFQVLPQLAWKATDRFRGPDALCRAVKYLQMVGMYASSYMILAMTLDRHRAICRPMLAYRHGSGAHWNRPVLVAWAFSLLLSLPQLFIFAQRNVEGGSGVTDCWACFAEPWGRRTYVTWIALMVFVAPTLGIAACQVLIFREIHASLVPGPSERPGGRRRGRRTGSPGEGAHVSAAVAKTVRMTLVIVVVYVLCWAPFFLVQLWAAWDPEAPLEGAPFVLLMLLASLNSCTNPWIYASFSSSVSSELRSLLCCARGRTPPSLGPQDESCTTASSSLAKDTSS

T1 sequence (P37288 whole entry): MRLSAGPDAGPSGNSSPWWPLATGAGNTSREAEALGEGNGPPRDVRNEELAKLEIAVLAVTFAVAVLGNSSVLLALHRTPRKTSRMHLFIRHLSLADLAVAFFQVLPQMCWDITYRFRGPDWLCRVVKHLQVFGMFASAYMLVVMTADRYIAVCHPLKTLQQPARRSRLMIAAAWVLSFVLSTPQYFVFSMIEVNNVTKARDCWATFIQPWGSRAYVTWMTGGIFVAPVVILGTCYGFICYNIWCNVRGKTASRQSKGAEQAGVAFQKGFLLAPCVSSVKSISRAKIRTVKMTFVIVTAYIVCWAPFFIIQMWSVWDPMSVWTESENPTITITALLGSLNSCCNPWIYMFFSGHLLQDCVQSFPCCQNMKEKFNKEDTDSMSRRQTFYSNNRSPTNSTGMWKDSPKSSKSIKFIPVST

Row | SMILES | IC50 (human V1a receptor) [nM] | ratio IC50 hV2/hV1a (human V1a receptor) | IC50 (human V2 receptor) [nM]
1 | O=C(N[C@H]1C[C@@H]1F)c1cccc(C(F)(F)F)c1-n1cnc(Cn2nc(-c3ccc(Cl)cc3)n(C[C@H](O)C(F)(F)F)c2=O)n1 (racemic) [Example 422, 2-[3-({3-(4-Chlorophenyl)-5-oxo-4-[(2S)-3,3,3-trifluoro-2-hydroxypropyl]-4,5-dihydro-1H-1,2,4-triazol-1-yl}methyl)-1H-1,2,4-triazol-1-yl]-N-[2-fluorocyclopropyl]-3-(trifluoromethyl)benzamide] | 30 | 93.3 | 2800
2 | O=C(N[C@H]1C[C@H]1F)c1ncccc1-n1cnc(Cn2nc(-c3ccc(Cl)cc3)n(C[C@H](O)C(F)(F)F)c2=O)n1 (racemic) [Example 435, 3-[3-({3-(4-Chlorophenyl)-5-oxo-4-[(2S)-3,3,3-trifluoro-2-hydroxypropyl]-4,5-dihydro-1H-1,2,4-triazol-1-yl}methyl)-1H-1,2,4-triazol-1-yl]-N-[2-fluorocyclopropyl]pyridine-2-carboxamide] | 24.5 | 43.5 | 1060
3 | O=C(N[C@H]1C[C@H]1F)c1ncccc1-n1cnc(Cn2nc(-c3ccc(Cl)cc3)n(C[C@H](O)C(F)(F)F)c2=O)n1 (racemic) [Example 456, 3-[3-({3-(4-Chlorophenyl)-5-oxo-4-[(2S)-3,3,3-trifluoro-2-hydroxypropyl]-4,5-dihydro-1H-1,2,4-triazol-1-yl}methyl)-1H-1,2,4-triazol-1-yl]-N-[2-fluorocyclopropyl]pyridine-2-carboxamide] | 12 | 65.4 | 785
4 | O=C(N[C@H]1C[C@H]1F)c1cccnc1-n1cnc(Cn2nc(-c3ccc(Cl)cc3)n(C[C@H](O)C(F)(F)F)c2=O)n1 (racemic) [Example 504, 2-[3-({3-(4-Chlorophenyl)-5-oxo-4-[(2S)-3,3,3-trifluoro-2-hydroxypropyl]-4,5-dihydro-1H-1,2,4-triazol-1-yl}methyl)-1H-1,2,4-triazol-1-yl]-N-[2-fluorocyclopropyl]pyridine-3-carboxamide] | 3.1 | 50.0 | 155
5 | O=C1CN(c2nc(Cn3nc(-c4ccc(Cl)cc4)n(C[C@H](O)C(F)(F)F)c3=O)nn2-c2cccnc2C(=O)N[C@H]2C[C@@H]2F)CCN1 (racemic) [Example 507, 3-[3-({3-(4-Chlorophenyl)-5-oxo-4-[(2S)-3,3,3-trifluoro-2-hydroxypropyl]-4,5-dihydro-1H-1,2,4-triazol-1-yl}methyl)-5-(3-oxopiperazin-1-yl)-1H-1,2,4-triazol-1-yl]-N-[2-fluorocyclopropyl]pyridine-2-carboxamide] | 4500 | 7.1 | 32000
6 | O=C1CN(c2nc(Cn3nc(-c4ccc(Cl)cc4)n(C[C@H](O)C(F)(F)F)c3=O)nn2-c2cccnc2C(=O)N[C@@H]2C[C@@H]2F)CCN1 (racemic) [Example 508, 3-[3-({3-(4-Chlorophenyl)-5-oxo-4-[(2S)-3,3,3-trifluoro-2-hydroxypropyl]-4,5-dihydro-1H-1,2,4-triazol-1-yl}methyl)-5-(3-oxopiperazin-1-yl)-1H-1,2,4-triazol-1-yl]-N-[2-fluorocyclopropyl]pyridine-2-carboxamide] | 5150 | 4.6 | 23500
7 | O=C1CN(C(=O)c2nc(Cn3nc(-c4ccc(Cl)cc4)n(C[C@H](O)C(F)(F)F)c3=O)nn2-c2cnccc2C(=O)N[C@H]2C[C@H]2F)CCN1 (racemic) [Example 517, 3-{3-({3-(4-Chlorophenyl)-5-oxo-4-[(2S)-3,3,3-trifluoro-2-hydroxypropyl]-4,5-dihydro-1H-1,2,4-triazol-1-yl}methyl)-5-[(3-oxopiperazin-1-yl)carbonyl]-1H-1,2,4-triazol-1-yl}-N-[2-fluorocyclopropyl]pyridine-4-carboxamide] | 490 | 3.8 | 1840

Reference: patent publication US11173151B2, “Substituted triazole derivatives and uses thereof” (BAYER AKTIENGESELLSCHAFT, priority 2017, dated 2021)
